Measurements published in patent publication US20090137643A1, “Methods for Inhibiting or Reversing Tau Filament Fibrillization” (priority 2003, published 2009).
Where “and” joins values, the source holds several entries; their conditions need not be identical. Equal entries are not always repeated. Entries after “also recorded” stand apart in the source; their conditions may differ. Where two headings read alike, the source gives them in different places.

What was measured:
Assay type in all cases: biochemical
Aβ1-40 = biological target: T1, Aβ1-40 (Homo sapiens, UniProt P05067); assay: Aβ1-40 aggregation, turbidity at 400 nm; details: Aβ1-40 20 μM, 4.1 μM N744, 5 hours
T1 construct: Human Aβ1-40 (Bachem; Philadelphia, Pa.); purchased Bachem
Description: Aβ1-40 Aggregation. Aggregation was initiated by diluting the Aβ stock solution to 20 μM final concentration in aggregation buffer (150 mM NaCl, 10 mM 2-[N-morpholino]ethanesulfonic acid, pH 6.2; final volume 300 μl). Turbidity resulting from Aβ aggregation in the presence (4.1 μM final concentration) and absence of […] was monitored as a function of time in a Beckman DU640B spectrophotometer at 400 nm versus a DMSO vehicle blank (Snyder et al., Biophys 67: 1216-1228 (1994); Evans et al., Proc. Natl. Acad. Sci U.S.A. 92: 763-767 (1995)). Cuvettes were vortexed before each reading. […] Selectivity of tau Fibrillization Antagonism. […] To determine whether amyloid binding was accompanied by fibrillization inhibitory activity, the ability of […] to inhibit Aβ1-40 assembly was examined. In the absence of ligand, Aβ1-40 (20 μM) polymerized spontaneously after a lag of about 80 minutes.

htau40 = biological target: T2, htau40 (Homo sapiens, UniProt P10636); assay: Tau aggregation: arachidonic acid-induced htau40 fibrillization, quantitative transmission electron microscopy; parameters: IC50 for inhibition of tau fibrillization relative to molar concentration of arachidonic acid: unit not given here; details: for filament length distribution versus DMSO vehicle control: 3 hours at 37° C.; for IC50: N744 0.12-4.1 μM
T2 construct: polyhistidine; made in house
Description: Tau Aggregation. Purified recombinant htau40 was polymerized as described previously (King et al., Biochemistry 38: 14851-14859 (1999); Wilson et al., Am. J. Pathol 150: 2181-2195 (1997); King et al., J. Neurochem 74: 1749-1757 (2000)). Under standard conditions, 4 μM (final concentration) htau40 was incubated with arachidonic acid in Assembly Buffer (10 mM 4-[2-hydroxyethyl]-1-piperazineethanesulfonic acid, 100 mM NaCl, and 5 mM DTT) at either room temperature or at 37° C. Fibrillization was induced by the addition of arachidonic acid (75-100 μM) and continued for 3 to 6 hours until analyzed by electron microscopy as described below. When present, N744 final concentration varied between 0.12 and 4.1 μM in aggregation assays. (N744 final concentration of up to 4.7 μM was used in disaggregation assays (see below)). Control reactions were normalized for DMSO vehicle, which was limited to no more than 5% (v/v) in all reactions.
(§1) Transmission Electron Microscopy. Aliquots (50 μl) of aggregation and disaggregation reactions were removed, fixed with glutaraldehyde (2%), and adsorbed (1 minute) onto 300 mesh formvar/carbon-coated copper grids (Electron Microscopy Sciences; Ft. Washington, Pa.). The resultant grids were washed with water, stained (1 minute) with 2% uranyl acetate (Electron Microscopy Sciences), washed again with water, blotted dry, and viewed in a Phillips CM 12 microscope operated at 65 kV. Three to five random images from each experimental condition were captured on film at 22,000× magnification, digitized, calibrated, and imported into Optimas 6.5.1 for quantitation of filament length and number as described previously (King et al., J. Neurochem 74: 1749-1757 (2000). An individual filament is defined as any object greater than 50 nm in its long axis. Filaments were counted manually. Filament counts are reported as an average±standard deviation for both total filament length and total filament number. Length distributions were quantified in 25 nm (assembly) or 50 nm (disassembly) wide bins.

htau40 filaments = biological target: T3, htau40 filaments (Homo sapiens, UniProt P10636); assay: Tau disaggregation: preformed htau40 filaments, quantitative electron microscopy
T3 construct: polyhistidine; made in house
Description: Tau Disaggregation. Solutions of purified htau40 (4 μM) were polymerized under standard conditions as described above for 3.5 hours, then divided into two separate tubes. One tube received N744 at a final concentration of 4.7 μM, whereas the second tube received DMSO vehicle alone. Aliquots were removed from each sample after 0, 1, 3, 5, 9, 12, and 19 hours incubation and subjected to the electron microscopy assay described below. Control (no N744) reactions were normalized for DMSO vehicle, which was kept below 5.7% (v/v) in all reactions.
as §1
N744 Promotes tau Filament Disaggregation. […] To test this hypothesis, htau40 (4 μM) was polymerized with arachidonic acid (75 μM) over a 3.5 hour period after which time equal aliquots were treated with N744 (4.7 μM) or DMSO vehicle alone and filament numbers and lengths were measured over a 19 hour “chase” by electron microscopy. In the absence of N744, total htau40 filament length decreased 23±4% over this time period (FIG. 4). Because sample dilution was only 6% in the experimental paradigm, it appeared that DMSO alone destabilized tau filaments at these concentrations. In contrast, addition of N744 (4.7 μM) led to a more rapid decrease in total filament length so that 87±13% of total filament length was lost over the 19 hour time course. The initial rate of filament loss was well modeled as a first order decay (r^2=0.981; k=0.12±0.01 h^−1) under these conditions (FIG. 4).

amylin = biological target: T4, amylin (Homo sapiens, UniProt P10997); assay: Amylin aggregation, qualitative electron microscopy; details: amylin 50 μM, 4.1 μM N744, 24 hour period
T4 construct: purchased Bachem
T4 sequence (P10997 34-70 limits assumed): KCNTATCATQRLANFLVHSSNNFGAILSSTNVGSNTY
Description: Amylin Aggregation. Aggregation was initiated by diluting the peptide in 10 mM Tris-HCl, pH 7.3 to a final concentration of 50 μM (Goldsbury et al., J. Struct. Biol. 130: 352-362 (2000)) in the presence or absence of 4.1 μM N744. Aliquots were removed after 0, 1, 3, 5, 7, and 24 hours and prepared for EM as described above.
The activity of N744 on another amyloid-forming protein, amylin (Goldsbury et al., J. Struct. Biol. 130: 352-362 (2000)), was also examined.

[1] = htau40 4 μM, arachidonic acid 75 μM, 3.5 hours at 37° C.

T2 sequence (P10636 1-441 isoform P10636-8): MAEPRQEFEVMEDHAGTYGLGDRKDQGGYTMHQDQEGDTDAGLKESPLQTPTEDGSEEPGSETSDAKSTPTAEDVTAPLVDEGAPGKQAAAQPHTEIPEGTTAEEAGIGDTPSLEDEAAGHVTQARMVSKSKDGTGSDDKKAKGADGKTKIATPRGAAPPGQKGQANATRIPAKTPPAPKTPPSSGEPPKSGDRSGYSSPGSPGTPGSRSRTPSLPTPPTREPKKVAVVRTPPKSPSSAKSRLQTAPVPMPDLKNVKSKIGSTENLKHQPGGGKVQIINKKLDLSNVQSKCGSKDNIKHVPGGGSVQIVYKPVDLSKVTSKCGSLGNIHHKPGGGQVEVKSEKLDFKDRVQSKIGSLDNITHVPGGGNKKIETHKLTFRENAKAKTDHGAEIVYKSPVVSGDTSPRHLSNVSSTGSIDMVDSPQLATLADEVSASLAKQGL
T3 sequence (P10636 1-441 isoform P10636-8): as above
T1 sequence (P05067 672-711 limits assumed): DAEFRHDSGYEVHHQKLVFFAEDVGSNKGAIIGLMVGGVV

CCC(/C=C1\Sc2ccc(OC)cc2N1CCO)=C\c1sc2ccc(OC)cc2[n+]1CCO [N744, 3-(2-hydroxyethyl)-2-[2-[[3-(2-hydroxyethyl)-5-methoxy-2-benzothiazolylidene]methyl]-1-butenyl]-5-methoxybenzothiazolium]
effect on Aβ1-40 fibrillization (Aβ1-40): did not appreciably modulate the extent or half-life; also recorded: little effect | IC50 for inhibition of tau fibrillization relative to molar concentration of arachidonic acid (htau40): < 0.01 | tau fibrillization (total number or total length of filaments) (htau40; 4.1 μM N744, about 1:1 with htau40 4 μM, arachidonic acid 75 μM): greatly inhibited | filament length distribution versus DMSO vehicle control (htau40; N744 ≧1.2 μM, htau40 4 μM): significant shortening | Hill slope, total filament length (htau40; [1]): 1.84±0.14 | Hill slope, total filament number (htau40; [1]): 1.61±0.10 | IC50 (htau40; htau40 4 μM, arachidonic acid 75 μM, 3.5 hours at 37° C., read-out: IC50, inhibition of total filament length): 294 nM and < 300 nM and ~300 nM | IC50 (htau40; htau40 4 μM, arachidonic acid 75 μM, 3.5 hours at 37° C., read-out: IC50, inhibition of total filament number): 272 ± 17 nM | filament length distribution versus DMSO vehicle control (htau40; low N744 concentrations (≦410 nM), htau40 4 μM): did not differ significantly | net first order rate of filament loss, corrected for dilution and DMSO vehicle (htau40 filaments; 4.7 μM N744, htau40 4 μM): 0.10 ± 0.02 h⁻¹ | initial first order rate of decrease of total filament length (htau40 filaments; 4.7 μM N744 added to filaments from htau40 4 μM, 19 hour chase): 0.12 ± 0.01 h⁻¹ | filament number per length bin relative to DMSO only control (htau40 filaments; 19 hours, 4.7 μM N744, 50 nm bins): significantly fewer filaments in every bin | total filament length as % of vehicle only control (htau40 filaments; after 19 hours incubation with 4.7 μM N744): 13±2% | total filament length lost (htau40 filaments; over 19 hour time course, 4.7 μM N744): 87±13% | effect on amylin fibrillization (amylin): did not interfere; also recorded: did not modulate
